Activity calls are given as the source filed them. The rule behind the calls is not given here.
What was measured:
[1] = system: Staphylococcus epidermidis; assay: Enhancement of biofilm formation Staphylococcus epidermidis SW058 expressing icaA gene at 1/4 X MIC by microtiter plate assay; type: functional
[2] = system: Staphylococcus epidermidis; assay: Enhancement of biofilm formation Staphylococcus epidermidis SW098 expressing icaA gene at 1/4 X MIC by microtiter plate assay; type: functional
[3] = system: Staphylococcus epidermidis; assay: Antimicrobial activity against Staphylococcus epidermidis SW029 expressing icaA gene assessed as enhancement of biofilm formation after 18 hrs by microtiter plate assay; type: functional
[4] = system: Staphylococcus epidermidis; assay: Antimicrobial activity against compound pretreated Staphylococcus epidermidis assessed as biofilm formation at 1/4 X MIC relative to untreated control; type: functional
[5] = system: Staphylococcus epidermidis; assay: Enhancement of biofilm formation Staphylococcus epidermidis SW029 expressing icaA gene at 1/4 X MIC by microtiter plate assay; type: functional
[6] = system: Staphylococcus epidermidis; assay: Enhancement of biofilm formation Staphylococcus epidermidis SW120 at 1/4 X MIC by microtiter plate assay; type: functional
[7] = system: Staphylococcus epidermidis; assay: Upregulation of sarA gene expression in Staphylococcus epidermidis SW029 at 8 ug/ml after 24 hrs by RT-PCR relative to untreated control; type: functional
[8] = system: Staphylococcus epidermidis; assay: Upregulation of fruA gene expression in Staphylococcus epidermidis SW029 at 8 ug/ml after 6 hrs by RT-PCR relative to untreated control; type: functional
[9] = system: Staphylococcus epidermidis; assay: Antimicrobial activity against Staphylococcus epidermidis lacking compound-induced biofilms assessed as biofilm formation at 1/4 X MIC relative to untreated control; type: functional
[10] = system: Staphylococcus epidermidis; assay: Enhancement of biofilm formation Staphylococcus epidermidis SW099 at 1/4 X MIC by microtiter plate assay; type: functional
[11] = system: Staphylococcus epidermidis; assay: Enhancement of biofilm formation Staphylococcus epidermidis SW027 expressing icaA gene at 1/4 X MIC by microtiter plate assay; type: functional
[12] = system: Staphylococcus epidermidis; assay: Antimicrobial activity against compound pretreated Staphylococcus epidermidis biofilms; type: functional
[13] = system: Staphylococcus epidermidis; assay: Upregulation of sigB gene expression in Staphylococcus epidermidis SW036 at 8 ug/ml after 6 hrs by RT-PCR relative to untreated control; type: functional
[14] = system: Staphylococcus epidermidis; assay: Upregulation of icaA gene expression in Staphylococcus epidermidis SW029 at 8 ug/ml after 24 hrs by RT-PCR relative to untreated control; type: functional
[15] = system: Staphylococcus epidermidis; assay: Enhancement of biofilm formation Staphylococcus epidermidis ATCC 35984 expressing icaA gene at 1/4 X MIC by microtiter plate assay; type: functional
[16] = system: Staphylococcus epidermidis; assay: Effect on polysaccharide secretion in Staphylococcus epidermidis SW029 expressing icaA gene at 12 hrs by SEM; type: functional, organism-based
[17] = system: Staphylococcus epidermidis; assay: Upregulation of sigB gene expression in Staphylococcus epidermidis SW029 at 8 ug/ml after 6 hrs by RT-PCR relative to untreated control; type: functional
[18] = system: Staphylococcus epidermidis; assay: Upregulation of atlE gene expression in Staphylococcus epidermidis SW029 at 8 ug/ml after 24 hrs by RT-PCR relative to untreated control; type: functional
[19] = system: Staphylococcus epidermidis; assay: Enhancement of biofilm formation Staphylococcus epidermidis SW021 at 1/4 X MIC by microtiter plate assay; type: functional
[20] = system: Staphylococcus epidermidis; assay: Enhancement of biofilm formation Staphylococcus epidermidis SW070 at 1/4 X MIC by microtiter plate assay; type: functional
[21] = system: Staphylococcus epidermidis; assay: Enhancement of biofilm formation Staphylococcus epidermidis SW036 at 1/4 X MIC by microtiter plate assay; type: functional
[22] = system: Staphylococcus epidermidis; assay: Antimicrobial activity against Staphylococcus epidermidis SW029 expressing icaA gene assessed as formation of multilayer biofilms at 48 hrs by SEM; type: functional, organism-based
[23] = system: Staphylococcus epidermidis; assay: Enhancement of biofilm formation Staphylococcus epidermidis SW061 expressing icaA gene at 1/4 X MIC by microtiter plate assay; type: functional
[24] = system: Staphylococcus epidermidis; assay: Upregulation of fruA gene expression in Staphylococcus epidermidis SW036 at 8 ug/ml after 6 hrs by RT-PCR relative to untreated control; type: functional
[25] = system: Staphylococcus epidermidis; assay: Upregulation of sarA gene expression in Staphylococcus epidermidis SW036 at 8 ug/ml after 6 hrs by RT-PCR relative to untreated control; type: functional
[26] = system: Staphylococcus epidermidis; assay: Enhancement of biofilm formation Staphylococcus epidermidis SW045 expressing icaA gene at 1/4 X MIC by microtiter plate assay; type: functional
[27] = system: Staphylococcus epidermidis; assay: Upregulation of pyrR gene expression in Staphylococcus epidermidis SW036 at 8 ug/ml after 6 hrs by RT-PCR relative to untreated control; type: functional
[28] = system: Staphylococcus epidermidis; assay: Upregulation of atlE gene expression in Staphylococcus epidermidis SW036 at 8 ug/ml after 6 hrs by RT-PCR relative to untreated control; type: functional
[29] = system: Staphylococcus epidermidis; assay: Antimicrobial activity against Staphylococcus epidermidis SW029 expressing icaA gene assessed as increased biofilm formation at 6 to 12 hrs by CLSM; type: functional, organism-based
[30] = system: Staphylococcus epidermidis; assay: Enhancement of biofilm formation Staphylococcus epidermidis SW015 at 1/4 X MIC by microtiter plate assay; type: functional
[31] = system: Staphylococcus epidermidis; assay: Upregulation of icaA gene expression in Staphylococcus epidermidis SW029 at 8 ug/ml after 6 hrs by RT-PCR relative to untreated control; type: functional
[32] = system: Staphylococcus epidermidis; assay: Enhancement of biofilm formation Staphylococcus epidermidis SW104 expressing icaA gene at 1/4 X MIC by microtiter plate assay; type: functional
[33] = system: Staphylococcus epidermidis; assay: Upregulation of atlE gene expression in Staphylococcus epidermidis SW029 at 8 ug/ml after 6 hrs by RT-PCR relative to untreated control; type: functional
[34] = system: Staphylococcus epidermidis; assay: Antimicrobial activity against Staphylococcus epidermidis SW029 expressing icaA gene; type: functional
[35] = system: Staphylococcus epidermidis; assay: Antimicrobial activity against Staphylococcus epidermidis SW036 assessed as enhancement of biofilm formation after 18 hrs by microtiter plate assay; type: functional
[36] = system: Staphylococcus epidermidis; assay: Antimicrobial activity against Staphylococcus epidermidis SW036; type: functional
[37] = system: Staphylococcus epidermidis; assay: Enhancement of biofilm formation Staphylococcus epidermidis SW067 expressing icaA gene at 1/4 X MIC by microtiter plate assay; type: functional
[38] = system: Staphylococcus epidermidis; assay: Enhancement of biofilm formation Staphylococcus epidermidis SW032 expressing icaA gene at 1/4 X MIC by microtiter plate assay; type: functional
[39] = system: Staphylococcus epidermidis; assay: Upregulation of pyrR gene expression in Staphylococcus epidermidis SW029 at 8 ug/ml after 6 hrs by RT-PCR relative to untreated control; type: functional
[40] = system: Staphylococcus epidermidis; assay: Antimicrobial activity against Staphylococcus epidermidis lacking compound-induced biofilms; type: functional
[41] = system: Staphylococcus epidermidis; assay: Enhancement of biofilm formation Staphylococcus epidermidis SW115 at 1/4 X MIC by microtiter plate assay; type: functional
[42] = system: Staphylococcus epidermidis; assay: Upregulation of sarA gene expression in Staphylococcus epidermidis SW029 at 8 ug/ml after 6 hrs by RT-PCR relative to untreated control; type: functional
[43] = system: Staphylococcus epidermidis; assay: Antimicrobial activity against Staphylococcus epidermidis SW036 at 1/1024 X MIC; type: functional, organism-based
[44] = system: Staphylococcus epidermidis; assay: Enhancement of biofilm formation Staphylococcus epidermidis SW088 at 1/4 X MIC by microtiter plate assay; type: functional
[45] = system: Staphylococcus epidermidis; assay: Enhancement of biofilm formation Staphylococcus epidermidis SW085 expressing icaA gene at 1/4 X MIC by microtiter plate assay; type: functional
[46] = system: Staphylococcus epidermidis; assay: Enhancement of biofilm formation Staphylococcus epidermidis SW082 at 1/4 X MIC by microtiter plate assay; type: functional
[47] = system: Staphylococcus epidermidis; assay: Enhancement of biofilm formation Staphylococcus epidermidis SW071 at 1/4 X MIC by microtiter plate assay; type: functional
[48] = system: Staphylococcus epidermidis; assay: Enhancement of biofilm formation Staphylococcus epidermidis SW126 expressing icaA gene at 1/4 X MIC by microtiter plate assay; type: functional
[49] = system: Staphylococcus epidermidis; assay: Downregulation of sigB gene expression in Staphylococcus epidermidis SW029 at 8 ug/ml after 24 hrs by RT-PCR relative to untreated control; type: functional

## CC[C@H]1OC(=O)[C@H](C)[C@@H](O[C@H]2C[C@@](C)(OC)[C@@H](O)[C@H](C)O2)[C@H](C)[C@@H](O[C@@H]2O[C@H](C)C[C@H](N(C)C)[C@H]2O)[C@](C)(O)C[C@@H](C)C(=O)[C@H](C)[C@@H](O)[C@]1(C)O [ERYTHROMYCIN]
[1]
  Activity: 37.9%
[2]
  Activity: 93.9%
[3]
  Activity: 173%
[4]
  Ratio: 2.51
[5]
  Activity: 159.6%
[6]
  Activity: 69.4%
[7]
  fold change (FC): 6.9
[8]
  fold change (FC): 4.5
[9]
  Ratio: 1.02
[10]
  Activity: 55.7%
[11]
  Activity: 60.4%
[12]
  MIC: ≥ 32 µg/mL
[13]
  fold change (FC): 1.4
[14]
  fold change (FC): 2.8
[15]
  Activity: 7%
[16]
  Activity: inactive
[17]
  fold change (FC): 2
[18]
  fold change (FC): 2.4
[19]
  Activity: 34.7%
[20]
  Activity: 172.2%
[21]
  Activity: 284.3%
[22]
  Activity: inactive
[23]
  Activity: 50.8%
[24]
  fold change (FC): 2.4
[25]
  fold change (FC): 1.7
[26]
  Activity: 47.2%
[27]
  fold change (FC): 2.4
[28]
  fold change (FC): 1.8
[29]
  Activity: inactive
[30]
  Activity: 87.8%
[31]
  fold change (FC): 1.2
[32]
  Activity: 63.2%
[33]
  fold change (FC): 6.2
[34]
  MIC: > 128 µg/mL
[35]
  Activity: 100%
[36]
  MIC: > 128 µg/mL
[37]
  Activity: 150.3%
[38]
  Activity: 78.5%
[39]
  fold change (FC): 3.7
[40]
  MIC: ≥ 16 µg/mL
[41]
  Activity: 166.8%
[42]
  fold change (FC): 1.7
[43]
  Activity: Active
[44]
  Activity: 163.1%
[45]
  Activity: 297.8%
[46]
  Activity: 58.7%
[47]
  Activity: 230.4%
[48]
  Activity: 56.1%
[49]
  fold change (FC): 0.6

From ChEMBL document CHEMBL1671687, “Enhancement of biofilm formation by subinhibitory concentrations of macrolides in icaADBC-positive and -negative clinical isolates of Staphylococcus epidermidis” (2010)
